For the first experiment, the target named is ABL2 (human) (UniProt P42684). The experiment can be described thus: radiometric filter-binding kinase assay, Kinase HotSpot. As to conditions: compound 0.5 µM; ATP 10 µM.
MAP3K10 (human), sequence (Q02779 whole entry, looked up): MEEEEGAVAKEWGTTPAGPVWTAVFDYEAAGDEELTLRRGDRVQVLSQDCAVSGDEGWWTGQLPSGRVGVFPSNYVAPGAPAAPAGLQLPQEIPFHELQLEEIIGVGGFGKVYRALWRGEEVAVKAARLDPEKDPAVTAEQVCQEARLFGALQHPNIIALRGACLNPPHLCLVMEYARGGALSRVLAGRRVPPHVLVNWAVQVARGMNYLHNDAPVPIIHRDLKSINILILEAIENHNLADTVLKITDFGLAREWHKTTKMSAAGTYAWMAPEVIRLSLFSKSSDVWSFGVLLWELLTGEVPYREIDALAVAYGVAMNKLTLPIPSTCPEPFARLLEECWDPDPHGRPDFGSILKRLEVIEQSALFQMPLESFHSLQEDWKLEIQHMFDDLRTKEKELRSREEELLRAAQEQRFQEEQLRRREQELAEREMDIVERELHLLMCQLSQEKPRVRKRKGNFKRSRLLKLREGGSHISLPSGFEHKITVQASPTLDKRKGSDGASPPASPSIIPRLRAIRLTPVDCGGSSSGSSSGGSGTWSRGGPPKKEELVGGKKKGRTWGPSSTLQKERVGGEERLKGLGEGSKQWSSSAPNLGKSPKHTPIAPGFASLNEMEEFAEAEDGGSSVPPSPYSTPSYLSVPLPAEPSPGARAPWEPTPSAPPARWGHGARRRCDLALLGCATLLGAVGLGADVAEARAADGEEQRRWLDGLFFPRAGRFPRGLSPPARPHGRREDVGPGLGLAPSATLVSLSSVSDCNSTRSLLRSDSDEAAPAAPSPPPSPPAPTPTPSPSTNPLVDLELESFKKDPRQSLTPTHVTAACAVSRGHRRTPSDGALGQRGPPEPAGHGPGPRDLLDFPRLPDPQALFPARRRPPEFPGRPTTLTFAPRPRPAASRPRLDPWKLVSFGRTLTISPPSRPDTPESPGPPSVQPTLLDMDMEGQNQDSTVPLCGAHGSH
CSNK1D (human), sequence (P48730 whole entry, looked up): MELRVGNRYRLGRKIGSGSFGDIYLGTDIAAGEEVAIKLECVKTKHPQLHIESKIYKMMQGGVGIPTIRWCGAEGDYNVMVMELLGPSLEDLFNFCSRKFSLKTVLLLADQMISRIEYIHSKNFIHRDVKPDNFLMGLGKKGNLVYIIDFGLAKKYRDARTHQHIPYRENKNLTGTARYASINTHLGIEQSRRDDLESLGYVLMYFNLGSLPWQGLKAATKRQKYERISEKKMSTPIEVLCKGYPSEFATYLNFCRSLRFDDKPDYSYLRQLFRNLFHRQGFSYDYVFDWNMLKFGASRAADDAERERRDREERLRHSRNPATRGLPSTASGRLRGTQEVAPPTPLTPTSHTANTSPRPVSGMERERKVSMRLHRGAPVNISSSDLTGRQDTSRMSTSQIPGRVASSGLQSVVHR
As for `CC(C)c1nn(-c2c(Cl)cccc2Cl)c2nc(Cc3ccc(OCCO)cc3)nc(O)c12`, the residual activity amounted to 96.3%.

Turning to `COc1cc2ncc(-c3ccccc3)nc2cc1OC`, the residual activity was 94%.

For the compound `CN([C@@H](Cc1ccc(OS(=O)(=O)c2cccc3cnccc23)cc1)C(=O)N1CCN(c2ccccc2)CC1)S(=O)(=O)c1cccc2cnccc12`, the residual activity was 98.9%.

A further experiment has as its target ACVR1 (human) (UniProt Q04771). The description is as above. As to conditions: compound 0.5 µM; ATP 10 µM.
For the compound `CC(C)c1nn(-c2c(Cl)cccc2Cl)c2nc(Cc3ccc(OCCO)cc3)nc(O)c12`, the residual activity was 94.7%.

On to `COc1cc2ncc(-c3ccccc3)nc2cc1OC`, for which the residual activity turned out to be 99.3%.

`CN([C@@H](Cc1ccc(OS(=O)(=O)c2cccc3cnccc23)cc1)C(=O)N1CCN(c2ccccc2)CC1)S(=O)(=O)c1cccc2cnccc12`: the residual activity came out at 95%.

The next experiment deals with BRSK2 (human) (UniProt Q8IWQ3). The experiment is described as above. As to conditions: compound 0.5 µM; ATP 10 µM.
BRSK2 (human), sequence (Q8IWQ3 whole entry, looked up): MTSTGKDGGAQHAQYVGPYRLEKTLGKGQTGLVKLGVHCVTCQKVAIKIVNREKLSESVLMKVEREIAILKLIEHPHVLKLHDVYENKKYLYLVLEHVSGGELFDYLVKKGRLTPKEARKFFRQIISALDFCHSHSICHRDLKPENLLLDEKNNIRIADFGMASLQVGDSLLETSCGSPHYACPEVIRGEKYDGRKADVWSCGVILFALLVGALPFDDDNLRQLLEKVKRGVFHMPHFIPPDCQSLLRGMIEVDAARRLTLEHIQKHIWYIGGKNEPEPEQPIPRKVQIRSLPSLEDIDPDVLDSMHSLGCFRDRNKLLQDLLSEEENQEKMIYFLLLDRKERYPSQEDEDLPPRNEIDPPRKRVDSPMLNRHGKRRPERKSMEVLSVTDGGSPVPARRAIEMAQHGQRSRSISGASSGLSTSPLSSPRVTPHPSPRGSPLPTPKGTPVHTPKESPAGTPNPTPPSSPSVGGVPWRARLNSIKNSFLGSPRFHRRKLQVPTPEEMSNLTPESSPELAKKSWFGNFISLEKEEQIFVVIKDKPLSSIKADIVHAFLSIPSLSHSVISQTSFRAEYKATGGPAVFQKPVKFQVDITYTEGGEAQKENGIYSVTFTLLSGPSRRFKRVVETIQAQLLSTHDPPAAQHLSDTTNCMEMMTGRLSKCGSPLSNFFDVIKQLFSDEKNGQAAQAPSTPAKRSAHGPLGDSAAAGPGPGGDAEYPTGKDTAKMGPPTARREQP
`CC(C)c1nn(-c2c(Cl)cccc2Cl)c2nc(Cc3ccc(OCCO)cc3)nc(O)c12`: the residual activity is 98.3%.

`COc1cc2ncc(-c3ccccc3)nc2cc1OC`: the residual activity amounted to 103%.

Take `CN([C@@H](Cc1ccc(OS(=O)(=O)c2cccc3cnccc23)cc1)C(=O)N1CCN(c2ccccc2)CC1)S(=O)(=O)c1cccc2cnccc12`: the residual activity is 100%.

Another experiment has as its target CDC42BPB (human) (UniProt Q9Y5S2). The experiment is described as above. The conditions noted are these: compound 0.5 µM; ATP 10 µM.
For the compound `CC(C)c1nn(-c2c(Cl)cccc2Cl)c2nc(Cc3ccc(OCCO)cc3)nc(O)c12`, the residual activity is 105%.

Turning to `COc1cc2ncc(-c3ccccc3)nc2cc1OC`, the residual activity was found to be 93.3%.

As for `CN([C@@H](Cc1ccc(OS(=O)(=O)c2cccc3cnccc23)cc1)C(=O)N1CCN(c2ccccc2)CC1)S(=O)(=O)c1cccc2cnccc12`, the residual activity is 103%.

The target of another experiment is CDK6 CCND3 (human) (UniProt P30281+Q00534). The experiment is described as above. The conditions noted are these: compound 0.5 µM; ATP 10 µM.
`CC(C)c1nn(-c2c(Cl)cccc2Cl)c2nc(Cc3ccc(OCCO)cc3)nc(O)c12`: the residual activity was 46.6%.

`COc1cc2ncc(-c3ccccc3)nc2cc1OC`: the residual activity was 93.7%.

On to `CN([C@@H](Cc1ccc(OS(=O)(=O)c2cccc3cnccc23)cc1)C(=O)N1CCN(c2ccccc2)CC1)S(=O)(=O)c1cccc2cnccc12`, for which the residual activity is 105%.

The target in another experiment is CHEK1 (human) (UniProt O14757). The experiment is described as above. The conditions noted are these: compound 0.5 µM; ATP 10 µM.
CHEK1 (human), sequence (O14757 whole entry, looked up): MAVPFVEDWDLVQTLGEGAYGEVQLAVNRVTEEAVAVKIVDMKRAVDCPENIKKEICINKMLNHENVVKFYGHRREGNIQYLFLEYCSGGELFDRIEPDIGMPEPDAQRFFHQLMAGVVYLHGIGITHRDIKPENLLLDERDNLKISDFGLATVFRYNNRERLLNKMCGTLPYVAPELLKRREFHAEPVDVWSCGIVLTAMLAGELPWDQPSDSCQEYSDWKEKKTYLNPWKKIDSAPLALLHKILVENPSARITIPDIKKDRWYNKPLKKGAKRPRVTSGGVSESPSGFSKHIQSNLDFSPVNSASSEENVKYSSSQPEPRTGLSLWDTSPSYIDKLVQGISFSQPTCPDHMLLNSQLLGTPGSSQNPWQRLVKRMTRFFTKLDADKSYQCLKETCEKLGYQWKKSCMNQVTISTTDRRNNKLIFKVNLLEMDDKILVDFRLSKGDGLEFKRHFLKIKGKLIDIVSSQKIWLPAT
Consider `CC(C)c1nn(-c2c(Cl)cccc2Cl)c2nc(Cc3ccc(OCCO)cc3)nc(O)c12`, for which the residual activity is 96.2%.

Take `COc1cc2ncc(-c3ccccc3)nc2cc1OC`: the residual activity is 94.7%.

With `CN([C@@H](Cc1ccc(OS(=O)(=O)c2cccc3cnccc23)cc1)C(=O)N1CCN(c2ccccc2)CC1)S(=O)(=O)c1cccc2cnccc12`, the residual activity was 99.5%.

The next experiment concerns the target CSNK1D (human) (UniProt P48730). The experiment is described as above. As to conditions: compound 0.5 µM; ATP 10 µM.
As to `CC(C)c1nn(-c2c(Cl)cccc2Cl)c2nc(Cc3ccc(OCCO)cc3)nc(O)c12`, the residual activity stood at 97.1%.

For the compound `COc1cc2ncc(-c3ccccc3)nc2cc1OC`, the residual activity was found to be 101%.

Regarding `CN([C@@H](Cc1ccc(OS(=O)(=O)c2cccc3cnccc23)cc1)C(=O)N1CCN(c2ccccc2)CC1)S(=O)(=O)c1cccc2cnccc12`, the residual activity came to 109%.

Another experiment addresses CSNK1G1 (human) (UniProt Q9HCP0). The description is as above. As to conditions: compound 0.5 µM; ATP 10 µM.
For the compound `CC(C)c1nn(-c2c(Cl)cccc2Cl)c2nc(Cc3ccc(OCCO)cc3)nc(O)c12`, the residual activity came out at 101%.

For `COc1cc2ncc(-c3ccccc3)nc2cc1OC`, the residual activity was found to be 90.1%.

Regarding `CN([C@@H](Cc1ccc(OS(=O)(=O)c2cccc3cnccc23)cc1)C(=O)N1CCN(c2ccccc2)CC1)S(=O)(=O)c1cccc2cnccc12`, the residual activity was 102%.

The target of a further experiment is DYRK1A (human) (UniProt Q13627). The experiment is described as above. As to conditions: compound 0.5 µM; ATP 10 µM.
`CC(C)c1nn(-c2c(Cl)cccc2Cl)c2nc(Cc3ccc(OCCO)cc3)nc(O)c12`: the residual activity turned out to be 105%.

As for `COc1cc2ncc(-c3ccccc3)nc2cc1OC`, the residual activity turned out to be 97.2%.

For `CN([C@@H](Cc1ccc(OS(=O)(=O)c2cccc3cnccc23)cc1)C(=O)N1CCN(c2ccccc2)CC1)S(=O)(=O)c1cccc2cnccc12`, the residual activity is 102%.

The target of the next experiment is DYRK2 (human) (UniProt Q92630). The description is as above. As to conditions: compound 0.5 µM; ATP 10 µM.
As for `CC(C)c1nn(-c2c(Cl)cccc2Cl)c2nc(Cc3ccc(OCCO)cc3)nc(O)c12`, the residual activity worked out at 100%.

`COc1cc2ncc(-c3ccccc3)nc2cc1OC`: the residual activity was 95.9%.

Turning to `CN([C@@H](Cc1ccc(OS(=O)(=O)c2cccc3cnccc23)cc1)C(=O)N1CCN(c2ccccc2)CC1)S(=O)(=O)c1cccc2cnccc12`, the residual activity was 97.7%.

The target of a further experiment is EPHA8 (human) (UniProt P29322). Described as above. As to conditions: compound 0.5 µM; ATP 10 µM.
Consider `CC(C)c1nn(-c2c(Cl)cccc2Cl)c2nc(Cc3ccc(OCCO)cc3)nc(O)c12`, for which the residual activity was 102%.

On to `COc1cc2ncc(-c3ccccc3)nc2cc1OC`, for which the residual activity was 93.1%.

As to `CN([C@@H](Cc1ccc(OS(=O)(=O)c2cccc3cnccc23)cc1)C(=O)N1CCN(c2ccccc2)CC1)S(=O)(=O)c1cccc2cnccc12`, the residual activity was 99.6%.

A further experiment deals with EPHB1 (human) (UniProt P54762). Described as above. The conditions noted are these: compound 0.5 µM; ATP 10 µM.
EPHB1 (human), sequence (P54762 whole entry, looked up): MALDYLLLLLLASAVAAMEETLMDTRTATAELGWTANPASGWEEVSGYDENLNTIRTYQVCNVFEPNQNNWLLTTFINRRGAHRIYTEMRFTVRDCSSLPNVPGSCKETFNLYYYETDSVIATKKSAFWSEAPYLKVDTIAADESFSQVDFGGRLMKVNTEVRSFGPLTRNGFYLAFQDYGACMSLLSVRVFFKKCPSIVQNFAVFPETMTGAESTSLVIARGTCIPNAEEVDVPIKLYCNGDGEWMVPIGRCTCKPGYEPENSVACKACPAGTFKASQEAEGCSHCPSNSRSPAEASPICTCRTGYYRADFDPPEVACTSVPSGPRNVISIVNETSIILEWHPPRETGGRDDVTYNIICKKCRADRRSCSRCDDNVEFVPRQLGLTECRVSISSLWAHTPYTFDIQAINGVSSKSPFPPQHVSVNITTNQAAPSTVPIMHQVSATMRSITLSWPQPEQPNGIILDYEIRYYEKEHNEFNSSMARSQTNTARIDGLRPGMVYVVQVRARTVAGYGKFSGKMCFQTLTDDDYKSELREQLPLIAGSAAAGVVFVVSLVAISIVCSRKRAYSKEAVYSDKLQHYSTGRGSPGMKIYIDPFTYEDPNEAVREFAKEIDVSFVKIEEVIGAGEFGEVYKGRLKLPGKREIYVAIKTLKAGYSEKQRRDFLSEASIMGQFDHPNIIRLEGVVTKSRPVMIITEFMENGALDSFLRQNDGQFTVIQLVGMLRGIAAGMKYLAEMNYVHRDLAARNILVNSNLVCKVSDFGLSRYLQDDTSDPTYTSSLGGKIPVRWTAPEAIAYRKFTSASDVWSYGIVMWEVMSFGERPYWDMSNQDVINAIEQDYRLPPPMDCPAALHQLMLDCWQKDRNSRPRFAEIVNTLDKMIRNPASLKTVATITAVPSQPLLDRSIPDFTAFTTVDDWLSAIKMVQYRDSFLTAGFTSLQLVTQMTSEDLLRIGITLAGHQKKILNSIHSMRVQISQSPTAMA
As for `CC(C)c1nn(-c2c(Cl)cccc2Cl)c2nc(Cc3ccc(OCCO)cc3)nc(O)c12`, the residual activity amounted to 91.3%.

On to `COc1cc2ncc(-c3ccccc3)nc2cc1OC`, for which the residual activity was 92.8%.

For `CN([C@@H](Cc1ccc(OS(=O)(=O)c2cccc3cnccc23)cc1)C(=O)N1CCN(c2ccccc2)CC1)S(=O)(=O)c1cccc2cnccc12`, the residual activity was 94.2%.

A further experiment addresses ERBB2 (human) (UniProt P04626). Described as above. As to conditions: compound 0.5 µM; ATP 10 µM.
As for `CC(C)c1nn(-c2c(Cl)cccc2Cl)c2nc(Cc3ccc(OCCO)cc3)nc(O)c12`, the residual activity was 101%.

On to `COc1cc2ncc(-c3ccccc3)nc2cc1OC`, for which the residual activity worked out at 116%.

As for `CN([C@@H](Cc1ccc(OS(=O)(=O)c2cccc3cnccc23)cc1)C(=O)N1CCN(c2ccccc2)CC1)S(=O)(=O)c1cccc2cnccc12`, the residual activity is 96%.

The target in the next experiment is FES (human) (UniProt P07332). The experiment is described as above. The conditions noted are these: compound 0.5 µM; ATP 10 µM.
For the compound `CC(C)c1nn(-c2c(Cl)cccc2Cl)c2nc(Cc3ccc(OCCO)cc3)nc(O)c12`, the residual activity worked out at 97.1%.

As for `COc1cc2ncc(-c3ccccc3)nc2cc1OC`, the residual activity is 105%.

In the case of `CN([C@@H](Cc1ccc(OS(=O)(=O)c2cccc3cnccc23)cc1)C(=O)N1CCN(c2ccccc2)CC1)S(=O)(=O)c1cccc2cnccc12`, the residual activity stood at 97.7%.

The target of another experiment is FLT1 (human) (UniProt P17948). The experiment is described as above. The conditions noted are these: compound 0.5 µM; ATP 10 µM.
On to `CC(C)c1nn(-c2c(Cl)cccc2Cl)c2nc(Cc3ccc(OCCO)cc3)nc(O)c12`, for which the residual activity stood at 87.2%.

For `COc1cc2ncc(-c3ccccc3)nc2cc1OC`, the residual activity was determined as 85%.

As to `CN([C@@H](Cc1ccc(OS(=O)(=O)c2cccc3cnccc23)cc1)C(=O)N1CCN(c2ccccc2)CC1)S(=O)(=O)c1cccc2cnccc12`, the residual activity was found to be 86.5%.

For the next experiment, the target named is HIPK1 (human) (UniProt Q86Z02). Described as above. As to conditions: compound 0.5 µM; ATP 10 µM.
As for `CC(C)c1nn(-c2c(Cl)cccc2Cl)c2nc(Cc3ccc(OCCO)cc3)nc(O)c12`, the residual activity was found to be 102%.

`COc1cc2ncc(-c3ccccc3)nc2cc1OC`: the residual activity was found to be 93.4%.

Take `CN([C@@H](Cc1ccc(OS(=O)(=O)c2cccc3cnccc23)cc1)C(=O)N1CCN(c2ccccc2)CC1)S(=O)(=O)c1cccc2cnccc12`: the residual activity is 110%.

The next experiment has as its target HIPK3 (human) (UniProt Q9H422). Described as above. As to conditions: compound 0.5 µM; ATP 10 µM.
As for `CC(C)c1nn(-c2c(Cl)cccc2Cl)c2nc(Cc3ccc(OCCO)cc3)nc(O)c12`, the residual activity is 99%.

Regarding `COc1cc2ncc(-c3ccccc3)nc2cc1OC`, the residual activity worked out at 97.7%.

`CN([C@@H](Cc1ccc(OS(=O)(=O)c2cccc3cnccc23)cc1)C(=O)N1CCN(c2ccccc2)CC1)S(=O)(=O)c1cccc2cnccc12`: the residual activity is 110%.

For another experiment, the target named is IKBKE (human) (UniProt Q14164). Described as above. As to conditions: compound 0.5 µM; ATP 10 µM.
IKBKE (human), sequence (Q14164 whole entry, looked up): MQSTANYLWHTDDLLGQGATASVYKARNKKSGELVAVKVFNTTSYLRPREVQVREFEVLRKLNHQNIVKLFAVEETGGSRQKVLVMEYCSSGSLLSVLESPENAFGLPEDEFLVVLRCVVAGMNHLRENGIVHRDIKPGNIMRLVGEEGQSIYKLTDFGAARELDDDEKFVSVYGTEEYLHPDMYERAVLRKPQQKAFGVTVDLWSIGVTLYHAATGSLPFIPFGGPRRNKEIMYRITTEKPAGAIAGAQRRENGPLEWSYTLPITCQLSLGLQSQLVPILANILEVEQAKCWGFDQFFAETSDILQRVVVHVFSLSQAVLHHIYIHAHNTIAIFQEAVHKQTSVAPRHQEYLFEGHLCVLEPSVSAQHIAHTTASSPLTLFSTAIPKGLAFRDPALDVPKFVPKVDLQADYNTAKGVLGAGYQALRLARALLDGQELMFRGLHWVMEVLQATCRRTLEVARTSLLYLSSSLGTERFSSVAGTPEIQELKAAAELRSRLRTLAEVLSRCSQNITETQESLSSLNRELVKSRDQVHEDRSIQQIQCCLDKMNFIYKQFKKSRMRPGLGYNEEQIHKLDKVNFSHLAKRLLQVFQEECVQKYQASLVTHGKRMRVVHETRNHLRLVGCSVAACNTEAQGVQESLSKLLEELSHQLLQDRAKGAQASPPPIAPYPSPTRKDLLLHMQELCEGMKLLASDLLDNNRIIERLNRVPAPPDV
For the compound `CC(C)c1nn(-c2c(Cl)cccc2Cl)c2nc(Cc3ccc(OCCO)cc3)nc(O)c12`, the residual activity stood at 95.6%.

Turning to `COc1cc2ncc(-c3ccccc3)nc2cc1OC`, the residual activity was found to be 98.9%.

Regarding `CN([C@@H](Cc1ccc(OS(=O)(=O)c2cccc3cnccc23)cc1)C(=O)N1CCN(c2ccccc2)CC1)S(=O)(=O)c1cccc2cnccc12`, the residual activity came out at 92.6%.

The target in a further experiment is INSRR (human) (UniProt P14616). The description is as above. As to conditions: compound 0.5 µM; ATP 10 µM.
Take `CC(C)c1nn(-c2c(Cl)cccc2Cl)c2nc(Cc3ccc(OCCO)cc3)nc(O)c12`: the residual activity was determined as 94.2%.

With `COc1cc2ncc(-c3ccccc3)nc2cc1OC`, the residual activity turned out to be 99.2%.

In the case of `CN([C@@H](Cc1ccc(OS(=O)(=O)c2cccc3cnccc23)cc1)C(=O)N1CCN(c2ccccc2)CC1)S(=O)(=O)c1cccc2cnccc12`, the residual activity came out at 94.9%.

The target of the next experiment is ITK (human) (UniProt Q08881). The description is as above. As to conditions: compound 0.5 µM; ATP 10 µM.
ITK (human), sequence (Q08881 whole entry, looked up): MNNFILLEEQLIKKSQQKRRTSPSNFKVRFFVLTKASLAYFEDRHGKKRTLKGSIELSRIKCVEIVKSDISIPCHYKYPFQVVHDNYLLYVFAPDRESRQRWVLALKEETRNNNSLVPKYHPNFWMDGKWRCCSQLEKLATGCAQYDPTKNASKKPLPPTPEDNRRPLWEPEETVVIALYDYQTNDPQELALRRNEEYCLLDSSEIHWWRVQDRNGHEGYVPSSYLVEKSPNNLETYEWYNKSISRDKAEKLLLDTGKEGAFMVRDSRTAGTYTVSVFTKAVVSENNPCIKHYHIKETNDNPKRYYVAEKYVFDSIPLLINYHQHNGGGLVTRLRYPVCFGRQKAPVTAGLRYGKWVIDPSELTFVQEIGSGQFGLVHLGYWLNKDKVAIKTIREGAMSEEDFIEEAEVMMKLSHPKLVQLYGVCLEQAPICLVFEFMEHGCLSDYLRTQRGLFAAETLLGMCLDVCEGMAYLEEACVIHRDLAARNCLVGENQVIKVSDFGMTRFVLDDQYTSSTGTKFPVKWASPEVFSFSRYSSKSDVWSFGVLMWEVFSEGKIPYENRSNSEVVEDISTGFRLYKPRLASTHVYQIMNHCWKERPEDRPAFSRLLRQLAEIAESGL
As for `CC(C)c1nn(-c2c(Cl)cccc2Cl)c2nc(Cc3ccc(OCCO)cc3)nc(O)c12`, the residual activity is 98.6%.

Turning to `COc1cc2ncc(-c3ccccc3)nc2cc1OC`, the residual activity worked out at 97.8%.

As to `CN([C@@H](Cc1ccc(OS(=O)(=O)c2cccc3cnccc23)cc1)C(=O)N1CCN(c2ccccc2)CC1)S(=O)(=O)c1cccc2cnccc12`, the residual activity worked out at 99.4%.

A further experiment concerns the target MAP3K10 (human) (UniProt Q02779). Described as above. As to conditions: compound 0.5 µM; ATP 10 µM.
Turning to `CC(C)c1nn(-c2c(Cl)cccc2Cl)c2nc(Cc3ccc(OCCO)cc3)nc(O)c12`, the residual activity was found to be 90.3%.

With `COc1cc2ncc(-c3ccccc3)nc2cc1OC`, the residual activity was 105%.

For `CN([C@@H](Cc1ccc(OS(=O)(=O)c2cccc3cnccc23)cc1)C(=O)N1CCN(c2ccccc2)CC1)S(=O)(=O)c1cccc2cnccc12`, the residual activity was 92.6%.

The residual activity is the signal under treatment as a percentage of the control signal.

The record behind these values is the kinase profiling compilation of Christmann-Franck et al. (2016).
